The values below come from patent US9260417B2, “Therapeutic methods and compositions involving allosteric kinase inhibition” (AMITECH THERAPEUTIC SOLUTIONS, INC., priority 2010, dated 2016).

Test [1] has as its target AXL (Homo sapiens (Human), UniProt P30530). The test can be described thus: KINOMEscan competitive binding assay. The note with it: 10 uM. From the text:
(§1) In vitro kinase screen and competitive binding assay. Sorafenib as well as test compounds were submitted to Invitrogen and screened using their SelectScreen™ Profiling Service.

For test [2], the target named is BRAF(V600E) (Homo sapiens (Human), UniProt P15056, V600E). Description: KINOMEscan competitive binding assay. The conditions noted are these: 10 uM.
Source text: as §1

For test [3], the target named is CDK9 (Homo sapiens (Human), UniProt P50750). The test can be described thus: KINOMEscan competitive binding assay. The conditions noted are these: 10 uM.
Source text: as §1

Test [4] deals with CLK2 (Homo sapiens (Human), UniProt P49760). The test can be described thus: KINOMEscan competitive binding assay. The conditions noted are these: 10 uM.
Source text: as §1

Test [5] deals with KIT(V559D, T670I) (Homo sapiens (Human), UniProt P10721, T670I/V559D). Description: KINOMEscan competitive binding assay. The conditions noted are these: 10 uM.
Source text: as §1

For test [6], the target named is PRKCD (Homo sapiens (Human), UniProt Q05655). The test can be described thus: KINOMEscan competitive binding assay. The note with it: 10 uM.
Source text: as §1

For test [7], the target named is RIPK1 (Homo sapiens (Human), UniProt Q13546). The test can be described thus: KINOMEscan competitive binding assay. The conditions noted are these: 10 uM.
Source text: as §1

In test [8] the target is TRKA (Homo sapiens (Human), UniProt P04629). Description: KINOMEscan competitive binding assay. The conditions noted are these: 10 uM.
Source text: as §1

For test [9], the target named is p38-alpha (Homo sapiens (Human), UniProt Q16539). Description: KINOMEscan competitive binding assay. The note with it: 10 uM.
Test [10] has as its target PIM1 (Homo sapiens (Human), UniProt P11309). Description: KINOMEscan competitive binding assay. The note with it: 10 uM.
Test [11] concerns the target VEGFR2 (Homo sapiens (Human), UniProt P35968). The test can be described thus: KINOMEscan competitive binding assay. The conditions noted are these: 10 uM.
Test [12] deals with MEK S298. Description: PAK-mediated MEK S298 phosphorylation in endothelial cells. The test is classed as cell-based, human. The conditions noted are these: HUVECs stimulated with bFGF or VEGF, 5 μM. On the procedure: FIG. 1A-1F illustrate molecular modeling and assay screening to compounds for dual targeting of PDGFRβ and RAF. (FIG. 1A) Molecular modeling of the amino-triazole based small molecules in PDGFRβ and RAF, respectively. […] A homology model of PDGFRβ was created with a structurally-related family member (VEGFR2, PDB 1y6b). […] To autophosphorylation, immunoblots were carried out with a phospho-tyrosine antibody. Membranes were stripped and reprobed for total PDGFRβ levels. […] (FIG. 1D) Structure activity relationships of the amino-triazole based small molecules comparing both PDGFRβ and B-RAF. […] Curves represent the average of 3 separate experiments, error bars represent ±SEM.
Following stimulation with bFGF, VEGFA or PDGF-BB, cells were washed 1× with ice-cold PBS and lysed in RIPA buffer. For the PDGFRβ autophosphorylation assay in VSMCs, 500 μg of protein from lysates was incubated with 3 μg of anti-PDGFRβ (sc-432, Santa Cruz Biotechnology) for 1 h at 4° C. and subsequently tumbled overnight with protein A/G beads (Pierce) for immunoprecipitation. […] HRP conjugated primary or secondary Abs were detected with SuperSignal ECL (Pierce). […]

Test [13] relates to bFGF induced angiogenesis. Description: Mouse Matrigel model of angiogenesis. The test is classed as in vivo, mice. The note with it: 50 mg/kg, ip, bid. On the procedure: On day 5 after implantation of the Matrigel, the mice were administered FITC-lectin to label blood vessels. The plugs were removed and visualized by confocal microscopy followed by homogenization and quantification of total FITC. Error bars represent ±SEM. […] Thin sections (5 μm) of the Matrigel plugs were immunostained for vessels with an EC mix (anti-Flk, anti-CD31, anti-VE-Cadherin, and anti-endoglin). […] (FIG. 9C) 6 inhibits phosphorylation of PDGFRβY751 in stromal cells. Thin sections (5 μm) of the Matrigel plugs were immunostained for pericytes and fibroblast with α-smooth muscle actin and for phospho-PDGFRβ Y751 levels. ECs were immunostained with anti-CD31. […] Thin sections (5 μm) of the Matrigel plugs were immunostained for vessels with an EC mix (described as in 9B). TOPRO-3 was used as a nuclear counterstain and TUNEL staining was used to detect apoptotic nuclei. Images were taken using confocal laser scanning microscopy. […]
Female Nu/Nu mice were implanted with growth-factor depleted Matrigel (BD Biosciences, San Jose, Calif.) in the flank containing either PBS or 200 ng of bFGF (Peprotech). […] Five days after matrigel implantation, mice were tail-vein injected with FITC-lectin and plugs were harvested and imaged by confocal microscopy and quantified after homogenization in ice-cold PBS using a fluorescent microplate reader (Tecan Systems, Inc., San Jose, Calif.). […]

As for `CSc1nc(N)cc(Oc2ccc(-c3nnc(Nc4cccc(C(F)(F)F)c4)[nH]3)cc2)n1` [Compound 6], the “% Control” value in test [1] was 87%; in test [2], 98%; in test [3], 100%; in [4] it was 84%; in [5], 56%; in [6], 74%. Further, the “% Control” value in test [7] came to 84%; in [8] it was 64%; in test [9], 100%; in test [10], 96%; in [11] it was 80%. For the same compound, in test [12], the “PAK-mediated phosphorylation on MEK S298” value was “did not block”. Further, in test [13], the “p-ERK staining in endothelial cells of Matrigel plugs” value is “suppression in the p-ERK staining”. Besides, in [13], the “p-PDGFRβY751 signal in stromal compartment of Matrigel plugs” value is reported as “complete suppression”.
